From US20260234165A1, “MACROCYCLIC COMPOUNDS, PREPARATION METHOD THEREFOR, AND USE THEREOF” (GENFLEET THERAPEUTICS (SHANGHAI) INC., priority 2004, published 2026) come the findings set out here.

Counter-ions that a name gives are not always drawn. Like-named read-outs stand apart in the source and are kept apart here.

Holding throughout (format): cell-based, human
The test system of assay [1] is p-ERK in NCI-H441 cells (KRAS G12V mutation). The assay is described as follows: Cell p-ERK assay (HTRF) in NCI-H441 cells. The following applies: NCI-H441 cells, 3 h compound incubation, HTRF p-ERK T202/Y204, read-out: H441 p-ERK IC50. The procedure, abridged: (§1)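 Phospho-ERK inhibition measured by HTRF after a 3 h compound exposure (0.1% DMSO) in overnight-seeded cells; IC50 derived from dose-response fitting.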
Background: Time-resolved FRET reads energy transfer from a long-lived donor to a nearby acceptor.

The subject of assay [2] is p-ERK in AsPC-1 cells (KRAS G12D mutation). The assay is described as follows: Cell p-ERK assay (HTRF) in AsPC-1 cells. The following applies: AsPC-1 cells, 3 h compound incubation, HTRF p-ERK T202/Y204, read-out: AsPC-1 p-ERK IC50. The gist of the method:
as §1

The subject of assay [3] is AsPC-1 cells (KRAS G12D mutation). The assay is described as follows: 3D cell proliferation assay (CellTiter Glo-3D), AsPC-1. The following applies: medium with 2% FBS, read-out: AsPC-1 AP IC50. The gist of the method:
(§2)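 Luminescence read-out (CellTiter-Glo 3D) after 5-day compound exposure at 37 °C, 5% CO2. Cells: NCI-H441 and AsPC-1, 800/well, RPMI-1640 + 2% FBS, 0.1% DMSO final. IC50 by four-parameter fit of % inhibition against log concentration.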

The next assay concerns NCI-H441 cells. The assay is described as follows: 3D cell proliferation assay (CellTiter Glo-3D), NCI-H441. As to conditions: medium with 2% FBS, read-out: H441 AP IC50. The procedure, abridged:
as §2
On the technique in general: ATP-based viability assays read luminescence as a measure of living cells.

The mark [4] stands for this setting: 3D cell proliferation (CellTiter Glo-3D).
[5] abbreviates: Homo sapiens, ASPC1, 3D cell proliferation (CellTiter Glo-3D).
The mark [6] stands for this setting: Homo sapiens, NCI-H441, 3D cell proliferation (CellTiter Glo-3D).

As usually defined, the IC50 is the midpoint of a concentration-inhibition curve. Turning to `CO[C@@H](C)c1ncc(OCCN2CCOC3(CC3)C2)cc1-c1c2c3cc(ccc3n1CC(F)(F)F)-c1csc(n1)C[C@H](NC(=O)[C@H]1[C@H](C)[C@@H]1C)C(=O)N1CCC[C@H](N1)C(=O)OCC1(CC1)C2` (atropisomer, axis not shown; (Ra)) [Compound Z380, (1r,2R,3S)—N-((3′S,4′S,Z)—(Ra)-2′-(5-(2-(4-oxa-7-azaspiro[2,5]octan-7-yl)ethoxy)-2-((S)-1-methoxyethyl)pyridin-3-yl)-5′,7′-dioxo-1′-(2,2,2-trifluoroethyl)spiro[cyclopropane-1,10′-8-oxa-2(4,2)-thiazola-1(5,3)-indola-6(1,3)-pyridazinacycloundecaphan]-4-yl)-2,3-dimethylcyclopropane-1-carboxamide], the concentration for half-maximal inhibition (IC50) in assay [1] turned out to be 3.67 nM; in assay [2], 9.45 nM; in assay [3] (setting [4]), 6.28 nM; with NCI-H441 cells (setting [4]), 4.75 nM.

`CCn1c(-c2cc(C#CCN3CCCOCC3)cnc2[C@H](C)OC)c2c3cc(ccc31)-c1csc(n1)C[C@H](NP1(=O)CC(C)=C(C)C1)C(=O)N1CCC[C@H](N1)C(=O)OCC(C)(C)C2` (atropisomer, axis not shown; (Ra)) [Compound Z1032, (6^3S,4S,Z)—(Ra)-1^2-(5-(3-(1,4-oxazepan-4-yl)prop-1-yn-1-yl)-2-((S)-1-methoxyethyl)pyridin-3-yl)-4-((3,4-dimethyl-1-oxido-2,5-dihydrophosphol-1-yl)amino)-1^1-ethyl-10,10-dimethyl-6^1,6^2,6^3,6^4,6^5,6^6-hexahydro-1^1H-8-oxa-2(4,2)-thiazola-1(5,3)-indola-6(1,3)-pyridazinacycloundecaphane-5,7-dione]: the IC50 in assay [1] (Homo sapiens, NCI-H441, 3 h) worked out at 2.18 nM; in assay [2] (Homo sapiens, ASPC1, 3 h), 7.52 nM; in assay [3] (setting [5]), 20.9 nM; in the assay on NCI-H441 cells (setting [6]) it was 8.14 nM.

`CCn1c(-c2cc(C#CCN3CC(O)C3)cnc2[C@H](C)OC)c2c3cc(ccc31)-c1csc(n1)C[C@H](NC(=O)[C@H]1[C@H](C)[C@@H]1C)C(=O)N1CCC[C@H](N1)C(=O)OCC(C)(C)C2` [Compound Z1065, (2R,3S)—N-((6^3S,4S,Z)-1^1-ethyl-1^2-(5-(3-(3-hydroxyazetidin-1-yl)prop-1-yn-1-yl)-((S)-1-methoxyethyl)pyridin-3-yl)-10,10-dimethyl-5,7-dioxo-6^1,6^2,6^3,6^4,6^5,6^6-hexahydro-1^1H-8-oxo-2(4,2)-thiazola-1(5,3)-indola-6(1,3)-pyridazinacycloundecaphane-4-yl)-2,3-dimethylcyclopropane-1-carboxamide formate]: the IC50 in assay [1] is 0.31 nM; in assay [2] it was 0.42 nM; in assay [3] (setting [4]), 0.43 nM; with NCI-H441 cells (setting [4]), 0.4 nM.

Regarding `CCn1c(-c2cc(CCN3CCS(=O)(=O)CC3)cnc2[C@H](C)OC)c2c3cc(ccc31)-c1csc(n1)C[C@H](NC(=O)[C@H]1[C@H](C)[C@@H]1C)C(=O)N1CCC[C@H](N1)C(=O)OCC(C)(C)C2` [Compound Z485A, (1r,2R,3S)—N-((6^3S,4S,Z)-1^2-(5-(2-(1,1-dioxidothiomorpholino)ethyl)-2-((S)-1-methoxyethyl)pyridin-3-yl)-1-ethyl-10,10-dimethyl-5,7-dioxo-6^1,6^2,6^3,6^4,6^5,6^6-hexahydro-1^1H-8-oxa-2(4,2)-thiazola-1(5,3)-indola-6(1,3)-pyridazinacycloundecaphane-4-yl)-2,3-dimethylcyclopropane-1-carboxamide], the IC50 stood at 1.14 nM in assay [1], 1.45 nM in assay [2], 2.4 nM in assay [3] (setting [4]) and 1 nM in the assay with NCI-H441 cells (setting [4]).

In the case of `CCn1c(-c2cc(OCCN3CCS(=O)(=O)CC3)cnc2[C@H](C)OC)c2c3cc(ccc31)-c1csc(n1)C[C@H](NC(=O)C(C)C(C)C)C(=O)N1CCC[C@H](N1)C(=O)OCC(C)(C)C2` (stereo partly drawn) [Compound Z607, N-((6^3S,4S,Z)—(R4)-1^2(5-(2-(1,1-dioxidothiomorpholino)ethoxy)-2-((S)-1-methoxyethyl)pyridin-3-yl)-1^1-ethyl-10,10-dimethyl-5,7-dioxo-6^1,6^2,6^3,6^4,6^5,6^6-hexahydro-1^1H-8-oxa-2(4,2)-thiazola-1(5,3)-indola-6(1,3)-pyridazinacycloundecaphane-4-yl)-2,3-dimethylbutanamide], the IC50 in assay [1] was determined as 0.45 nM; in assay [2] it was 0.54 nM; in assay [3] (setting [4]) it was 1.12 nM; in the assay on NCI-H441 cells (setting [4]), 0.36 nM.

With `CCn1c(-c2cc(C#CCN3CCC(Nc4ccccc4P(C)(C)=O)CC3)cnc2[C@H](C)OC)c2c3cc(ccc31)-c1csc(n1)C[C@H](NC(=O)[C@H]1[C@H](C)[C@@H]1C)C(=O)N1CCC[C@H](N1)C(=O)OCC(C)(C)C2` (atropisomer, axis not shown; (Ra)) [Compound Z1062, (1r,2R,3S)—N-((6^35,4S,Z)-1^2-(5-(3-(4-((2-(dimethylphosphoryl)phenyl)amino)piperidin-1-yl)prop-1-yn-1-yl)-(Ra)-2-((S)-1-methoxyethyl)pyridin-3-yl)-1^1-ethyl-10,10-dimethyl-5,7-dioxo-6^1,6^2,6^3,6^4,6^5,6^6-hexahydro-1^1H-8-oxa-2(4,2)-thiazola-1(5,3)-indola-6(1,3)-pyridazinacycloundecaphane-4-yl)-2,3-dimethylcyclopropane-1-carboxamide], the IC50 is 0.53 nM in assay [1] (Homo sapiens, NCI-H441, 3 h); 0.82 nM in assay [2] (Homo sapiens, ASPC1, 3 h); 0.94 nM in assay [3] (setting [5]); 1.3 nM in the assay with NCI-H441 cells (setting [6]).

`CCn1c(-c2cc(OCCN3CCOC4(CC4)C3)cnc2[C@H](C)OC)c2c3cc(ccc31)-c1csc(n1)C[C@H](NC(=O)[C@@H]1[C@@H](C)[C@H]1c1ccncn1)C(=O)N1CCC[C@H](N1)C(=O)OCC(C)(C)C2` (atropisomer, axis not shown; (Ra)) [Compound Z661-2, (1R,2S,3R)—N-((6^3S,4S,Z)—(Ra)-1^2-(5-(2-(4-oxa-7-azaspiro[2,5]octan-7-yl)ethoxy)-2-((S)-1-methoxyethyl)pyridin-3-yl)-11-ethyl-10,10-dimethyl-5,7-dioxo-6^1,6^2,6^3,6^4,6^5,6^6-hexahydro-1^1H-8-oxa-2(4,2)-thiazola-1(5,3)-indola-6(1,3)-pyridazinacycloundecaphane-4-yl)-2-methyl-3-(pyrimidin-4-yl)cyclopropane-1-carboxamide]: the IC50 worked out at 1.58 nM in assay [1] (Homo sapiens, NCI-H441, 3 h); 3.99 nM in assay [2] (Homo sapiens, ASPC1, 3 h); 2.68 nM in assay [3] (setting [5]); 0.83 nM in the assay with NCI-H441 cells (setting [6]).

Consider `CCn1c(-c2cc(C#CCN3CC[C@H](C#N)C3)cnc2[C@H](C)OC)c2c3cc(ccc31)-c1csc(n1)C[C@H](Nc1nnc3cc(C)ccn13)C(=O)N1CCC[C@H](N1)C(=O)OCC(C)(C)C2` (atropisomer, axis not shown; (Ra)) [Compound Z1011, (3S)-1-(3-(5-((6^3S,4S,Z)—(Ra)-1^1-ethyl-10,10-dimethyl-4-((7-methyl-[1,2,4]triazolo[4,3-a]pyridin-3-yl)amino)-5,7-dioxo-6^1,6^2,6^3,6^4,6^5,6^6-hexahydro-1^1H-8-oxa-2(4,2)-thiazola-1(5,3)-indola-6(1,3)-pyridazinacycloundecaphane-1-yl)-6-((S)-1-methoxyethyl)pyridin-3-yl)prop-2-yn-1-yl)pyrrolidine-3-carbonitrile], for which the IC50 in assay [1] came out at 1.22 nM; in assay [2] it was 2.89 nM; in assay [3] (setting [4]), 2.07 nM; in the assay on NCI-H441 cells (setting [4]), 1.54 nM.

For the molecule `CCn1c(-c2cc(OCCN3CCOC4(CC4)C3)cnc2[C@H](C)OC)c2c3cc(ccc31)-c1csc(n1)C[C@H](NC(=O)[C@H]1[C@H](C)[C@@H]1C)C(=O)N1CCC[C@H](N1)C(=O)OCC(C)(C)C2` (atropisomer, axis not shown; (Sa)) [Compound Z551, (1r,2R,3S)—N-((6^3R,4R,Z)—(Sa)-1^2-(5-(2-(4-oxa-7-azaspiro[2,5]octan-7-yl)ethoxy)-2-((S)-1-methoxyethyl)-3-ylpyridin)-1^1-ethyl-10,10-dimethyl-5,7-dioxo-6^1,6^2,6^3,6^4,6^5,6^6-hexahydro-1^1H-8-oxa-2(4,2)-thiazola-1(5,3)-indola-6(1,3)-pyridazinacycloundecaphane-4-yl)-2,3-dimethylcyclopropane-1-carboxamide], the IC50 in assay [1] (Homo sapiens, NCI-H441, 3 h) was 0.27 nM; in assay [2] (Homo sapiens, ASPC1, 3 h) it was 0.29 nM; in assay [3] (setting [5]), 0.32 nM; in the assay with NCI-H441 cells (setting [6]), 0.37 nM.

Regarding `CCn1c(-c2cc(OCCN3CC[S+]([O-])CC3)cnc2[C@H](C)OC)c2c3cc(ccc31)-c1csc(n1)C[C@H](NC(=O)[C@H]1[C@H](C)[C@@H]1C)C(=O)N1CCC[C@H](N1)C(=O)OCC(C)(C)C2` (atropisomer, axis not shown; (Ra)) [Compound Z600], the IC50 in assay [1] stood at 0.51 nM; in assay [2] (Homo sapiens, ASPC1, 3 h), 0.51 nM; in assay [3] (setting [5]), 0.66 nM; with NCI-H441 cells (setting [4]), 0.36 nM.

On to `CCn1c(-c2cc(N3CCN4CCOC[C@@H]4C3)cnc2[C@H](C)OC)c2c3cc(ccc31)-c1csc(n1)C[C@H](NC(=O)[C@H]1[C@H](C)[C@@H]1C)C(=O)N1CCC[C@H](N1)C(=O)OCC(C)(C)C2` [Compound Z72], for which the IC50 stood at 0.31 nM in assay [1], 0.31 nM in assay [2], 0.88 nM in assay [3] (setting [4]) and 0.51 nM with NCI-H441 cells (setting [4]).
